Among the data in ChEMBL document CHEMBL1141614, “Selective COX-2 inhibitors. Part 2: synthesis and biological evaluation of 4-benzylideneamino- and 4-phenyliminomethyl-benzenesulfonamides” (Bioorg Med Chem, 2008) are IC50 values, retold here.

Structures are written as SMILES. pIC50: −log10 of the molar value.

By pIC50 is commonly meant −log10 of the IC50, conventionally taken in molar units.

Assay [1] deals with T1, Prostaglandin G/H synthase 2 (Homo sapiens, UniProt P35354).
T1 sequence (P35354 whole entry): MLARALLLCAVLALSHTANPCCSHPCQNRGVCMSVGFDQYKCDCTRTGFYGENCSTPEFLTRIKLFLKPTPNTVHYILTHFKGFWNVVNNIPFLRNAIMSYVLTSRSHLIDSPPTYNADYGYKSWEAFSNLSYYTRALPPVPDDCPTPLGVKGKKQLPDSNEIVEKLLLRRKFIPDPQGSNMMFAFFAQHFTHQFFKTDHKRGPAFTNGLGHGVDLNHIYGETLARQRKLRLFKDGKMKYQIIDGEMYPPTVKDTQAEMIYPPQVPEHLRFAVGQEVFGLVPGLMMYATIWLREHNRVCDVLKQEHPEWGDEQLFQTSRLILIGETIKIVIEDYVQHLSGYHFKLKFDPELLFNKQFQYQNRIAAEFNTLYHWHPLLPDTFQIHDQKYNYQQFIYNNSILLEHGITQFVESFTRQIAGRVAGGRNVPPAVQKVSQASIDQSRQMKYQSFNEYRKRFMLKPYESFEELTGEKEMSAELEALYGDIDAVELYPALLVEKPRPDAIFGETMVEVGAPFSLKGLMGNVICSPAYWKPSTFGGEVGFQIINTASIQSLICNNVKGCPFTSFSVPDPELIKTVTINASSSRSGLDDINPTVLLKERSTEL
The assay is described as follows: Inhibition of COX2 in human whole blood assessed as effect on LPS-stimulated PGE2 production.

Assay [2] addresses Prostaglandin G/H synthase 1 (Homo sapiens, UniProt P23219). The format is tissue-based, Blood.
Description: Inhibition of COX1 in human whole blood assessed as effect on A-23187-stimulated TxB2 production

Chain of Prostaglandin G/H synthase 1 (P23219 whole entry): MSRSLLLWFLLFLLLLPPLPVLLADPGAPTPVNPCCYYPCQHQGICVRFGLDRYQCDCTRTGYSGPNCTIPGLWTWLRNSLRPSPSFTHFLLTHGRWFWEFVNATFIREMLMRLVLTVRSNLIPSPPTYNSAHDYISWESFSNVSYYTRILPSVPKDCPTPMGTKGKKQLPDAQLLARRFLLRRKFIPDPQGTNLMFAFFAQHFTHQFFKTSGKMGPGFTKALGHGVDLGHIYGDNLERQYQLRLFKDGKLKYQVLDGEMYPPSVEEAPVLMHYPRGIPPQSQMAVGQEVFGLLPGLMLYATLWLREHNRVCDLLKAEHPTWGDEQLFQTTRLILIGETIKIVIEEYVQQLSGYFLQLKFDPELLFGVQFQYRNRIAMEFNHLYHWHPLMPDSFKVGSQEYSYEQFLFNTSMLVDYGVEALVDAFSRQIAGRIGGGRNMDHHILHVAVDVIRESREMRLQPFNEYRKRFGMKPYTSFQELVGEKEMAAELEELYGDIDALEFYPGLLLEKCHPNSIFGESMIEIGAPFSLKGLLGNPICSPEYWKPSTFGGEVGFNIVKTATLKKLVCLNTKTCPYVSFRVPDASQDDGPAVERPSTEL

Regarding `COC(=O)c1cc(/N=C/c2ccc(S(N)(=O)=O)cc2)ccc1O`, the pIC50 in assay [1] was 5.50; in assay [2], 4.62.

For the compound `COc1cc(/C=N/c2ccc(S(N)(=O)=O)cc2)cc(OC)c1`, the pIC50 in assay [1] is 5.47; in assay [2] it was 3.96.

For `NS(=O)(=O)c1ccc(/N=C/c2cccc([N+](=O)[O-])c2)cc1`, the results for the pIC50 in assay [1] and in assay [2] were 5.17 and 3.98, respectively.

`NS(=O)(=O)c1ccc(/N=C/c2ccccc2)cc1`: the pIC50 in assay [1] is 5.54; in assay [2] it was 3.97.

Regarding `COc1ccc(/C=N/c2ccc(S(N)(=O)=O)cc2)cc1`, the pIC50 was 5.01 in assay [1] and 3.50 in assay [2].

Turning to `COc1ccc(/C=N/c2ccc(S(N)(=O)=O)cc2)cc1OC`, the pIC50 was 5.51 in assay [1] and 3.96 in assay [2].

Regarding `Cc1ccc(/C=N/c2ccc(S(N)(=O)=O)cc2)cc1`, the pIC50 in assay [1] is 5.31; in assay [2], 3.72.

With `NS(=O)(=O)c1ccc(/N=C/c2ccc(O)c(C(=O)O)c2)cc1`, the pIC50 in assay [1] is 6.13; in assay [2] it was 4.07.

Turning to `NS(=O)(=O)c1ccc(/C=N/c2ccc(F)cc2)cc1`, the values for the pIC50 in assay [1] and in assay [2] were 5.36 and 4.10, respectively.

Regarding `CCOc1cc(/C=N/c2ccc(S(N)(=O)=O)cc2)ccc1O`, the pIC50 in assay [1] is 5.43; in assay [2], 4.32.

As for `NS(=O)(=O)c1ccc(/N=C/c2ccc(O)cc2)cc1`, the pIC50 was 5.47 in assay [1] and 3.83 in assay [2].

Regarding `CN(C)c1ccc(/N=C/c2ccc(S(N)(=O)=O)cc2)cc1`, the negative-log IC50 (pIC50) is 5.71 in assay [1] and 4.19 in assay [2].

For `COc1ccc(/N=C/c2ccc(S(N)(=O)=O)cc2)cc1`, the pIC50 in assay [1] was 5.38; in assay [2], 4.22.

On to `COc1cc(/C=N/c2ccc(S(N)(=O)=O)cc2)cc(OC)c1O`, for which the pIC50 in assay [1] was 5.57; in assay [2], 3.81.

For `COc1cc(/C=N/c2ccc(S(N)(=O)=O)cc2)cc(OC)c1OC`, the pIC50 in assay [1] was 5.53; in assay [2] it was 3.78.

Take `NS(=O)(=O)c1ccc(/N=C/c2ccc(C(F)(F)F)cc2)cc1`: the figures for the pIC50 in assay [1] and in assay [2] were 5.34 and 3.74, respectively.

Turning to `NS(=O)(=O)c1ccc(/C=N/c2ccc(C(F)(F)F)cc2)cc1`, the figures for the pIC50 in assay [1] and in assay [2] were 5.18 and 4.36, respectively.

In the case of `NS(=O)(=O)c1ccc(/N=C/c2ccc(F)cc2)cc1`, the pIC50 was 5.65 in assay [1] and 3.80 in assay [2].

Regarding `NS(=O)(=O)c1ccc(/N=C/c2cccc(O)c2)cc1`, the pIC50 in assay [1] was 5.56; in assay [2] it was 4.42.

For the compound `COC(=O)c1ccc(/N=C/c2ccc(S(N)(=O)=O)cc2)cc1`, the results for the pIC50 in assay [1] and in assay [2] were 5.43 and 4.25, respectively.

As for `NS(=O)(=O)c1ccc(/N=C/c2ccc(O)c(O)c2)cc1`, the pIC50 was 5.55 in assay [1] and 4.64 in assay [2].

For the compound `CN(C)c1ccc(/C=N/c2ccc(S(N)(=O)=O)cc2)cc1`, the pIC50 was 5.47 in assay [1] and 3.71 in assay [2].

Consider `NS(=O)(=O)c1ccc(/C=N/c2ccccc2)cc1`, for which the figures for the pIC50 in assay [1] and in assay [2] were 5.51 and 4.20, respectively.

As to `COC(=O)c1ccc(/C=N/c2ccc(S(N)(=O)=O)cc2)cc1`, the pIC50 was 5.56 in assay [1] and 3.74 in assay [2].

As to `COc1cc(/C=N/c2ccc(S(N)(=O)=O)cc2)ccc1O`, the results for the pIC50 in assay [1] and in assay [2] were 5.53 and 4.11, respectively.

Consider `COc1ccc(/N=C/c2ccc(S(N)(=O)=O)cc2)cc1OC`, for which the negative-log IC50 (pIC50) in assay [1] is 5.37; in assay [2], 4.50.

For `NS(=O)(=O)c1ccc(/C=N/c2ccc(O)cc2)cc1`, the pIC50 in assay [1] is 5.29; in assay [2] it was 4.29.

With `NS(=O)(=O)c1ccc(/N=C/c2ccc([N+](=O)[O-])cc2)cc1`, the pIC50 in assay [1] is 5.52; in assay [2], 3.85.

Take `COc1ccc(/C=N/c2ccc(S(N)(=O)=O)cc2)cc1O`: the pIC50 is 5.46 in assay [1] and 4.36 in assay [2].

In the case of `COc1cccc(/C=N/c2ccc(S(N)(=O)=O)cc2)c1`, the pIC50 in assay [1] was 5.26; in assay [2], 3.42.

As for `Cc1ccc(/N=C/c2ccc(S(N)(=O)=O)cc2)cc1`, the pIC50 in assay [1] is 5.34; in assay [2], 4.20.
